1 substance from patent publication US20130236568A1, “PHOSPHAPLATINS HAVING ANTI-ANGIOGENIC, ANTI-METASTATIC, AND PRO-APOPTOTIC PROPERTIES AND USES THEREOF” (Ohio University, priority 2011, published 2013) can be followed below.

The test system of data set [1] is VEGFR2 gene. Description: Quantitative real-time PCR, VEGFR2 gene expression in HUVEC cells. The format is cell-based, human. On the procedure:
(§1) Evaluations of selected gene expressions in Human Umbilical Vein Endothelial Cells (HUVEC) and Human Ovarian Cancer Cells by quantitative reverse transcriptase polymerase chain reaction (PCR)
(§2) Quantitative real-time PCR experiments were performed to estimate the expression of a selection of targeted genes. HUVEC cells (Lonza Walkersville, Frederick, Md.) were cultured on 0.1% gelatin-coated petri dishes by following standard protocols recommended by the vendor in a humidified incubator by maintaining 5% CO2 at 37° C. […]
(§3) Both treated and untreated cancer cells were maintained in RPMI 1640 medium with 10% fetal bovine serum, 2 μmol L-glutamine, 100 units/mL penicillin-streptomycin and 0.25 units/mL insulin solution, at 37° C. with 5% CO2. […] The quantity and purity of RNA were determined by UV spectroscopy (NanoDrop 2000 Thermo Scientific, Wilmington, Del.). A minimum absorbance ratio index (ratio of the absorbance measured at 260 nm over that at 280 nm) of 1.9 was used as an acceptable purity. […] The target gene was labeled with a blue dye (FAM, absorbance: 494 nm, emission: 518 nm) while the reference gene was tagged with a green dye (VIC, absorbance: 538 nm, emission: 554 nm). […]
(§4) The threshold cycle number (Ct), the point at which the fluorescence of the qPCR reaction just exceeds the threshold fluorescence of the detection system, was determined. […]
(In qPCR the cycle at which signal appears reflects the starting amount.)

For data set [2], the system named is Fas. Description: Expression of key genes with and without p53 inhibitor (Table 3): Fas. Conditions: positive = manifold increase, negative = decrease vs untreated cells. The format is cell-based, human. The method, then: Quantitative real-time PCR experiments were performed to estimate the expression of a selection of targeted genes. HUVEC cells (Lonza Walkersville, Frederick, Md.) were cultured on 0.1% gelatin-coated petri dishes by following standard protocols recommended by the vendor in a humidified incubator by maintaining 5% CO2 at 37° C. Human epithelial ovarian cancer cells (A2780) and cisplatin-resistant cells (A2780/C30) were cultured in RPMI 1640 with or without cisplatin (7 μM) and pyrodach-4 (180 μM) for 0, 3, 12 and 24 hours. […] HUVECs were treated with or without cisplatin (7 μM) or pyrodach-4 (90 or 180 μM) for various durations ranging from 1 hr. to 6 hrs.
as §3, with “CO2. RNA was isolated from both the treated and untreated cells.” for “CO2.”

Data set [3] relates to PTEN. Description: Quantitative real-time PCR, PTEN expression in HUVEC. The format is cell-based, human. Conditions: HUVEC treated with pyrodach-4. The method, then: as §1, §2, §3, §4
Data set [4] relates to FasL. Kind of data set: Quantitative real-time PCR, FasL expression in HUVEC. The format is cell-based, human. Conditions: HUVEC treated with pyrodach-4. The method, then:
as §1, §2, §3, §4

Data set [5] concerns yeast deletion collection. Kind of data set: Genome-wide fitness assay in yeast (pooled deletion strains). The format is cell-based. From the text:
The around 6000 strains in the yeast deletion collection can be studied in a single culture by using a microarray to detect the 20 bp DNA “barcodes” or “tags” contained in each strain. Barcode intensities are compared across time-points or across conditions to analyze the relative fitness of each strain. This development of the pooled fitness assay has greatly facilitated the functional annotation of the yeast genome by making genome-wide gene-deletion studies faster and easier, and has led to the development of high throughput methods for studying drug action in yeast. Pooled screens can be used for identifying gene functions, measuring the functional relatedness of gene pairs in order to group genes into pathways, identifying drug targets, and determining a drug's mechanism of action. This process involves five main steps: preparing aliquots of pooled cells, pooled growth, isolation of genomic DNA and PCR amplification of the barcodes, array hybridization (or next generation sequencing), and data analysis.
The pooled fitness assay involves five main steps (FIG. 3). First, the deletion collection is grown on solid media in arrayed format and the resulting cells are pooled and frozen to make cell aliquots that will be used for starting growth experiments. Cells are then grown in the desired conditions, typically for 5 to 20 generations. The barcodes from the resulting cell samples are prepared for hybridization by isolation of the genomic DNA and PCR amplification of the barcodes. The barcodes are amplified in two reactions to prevent crosstalk between the uptag and downtag primers. The resulting PCR products are then hybridized to tag arrays with one array needed per cell sample. Data is then analyzed to determine differences in strain representation between pairs of samples.
To analyze the genome wide effects of pyrodach-2 and -4, we screened 2 collections of strains, 1200 essential genes as heterozygote deletion mutants (reducing functional gene dose from 2 to 1) and 4800 non-essential genes as complete deletions (reducing functional gene dose from 2 to 0). Both compounds were screened at the highest dose possible (200 μM final concentration) to increase the likelihood of finding compound-specific sensitive strains.
Fitness profiling of pooled deletion strains involves […] main steps: • 1. Strains are first pooled at approximately equal abundance. • 2. The pool is grown competitively in the condition of choice and a control condition. If a gene is sensitive to the treatment condition, the strain carrying this deletion will grow more slowly and become under-represented relative to the control culture (purple strain). Resistant strains will grow faster and become over-represented (not shown). • 3. Genomic DNA is isolated from cells harvested at the end of pooled growth, and barcodes are amplified from the genomic DNA with universal primers. • 4. PCR products are then hybridized to an array that detects the tag sequences, giving tag intensities for the two samples. • 5. The treatment and control sample are then compared to determine the relative fitness of each strain. Note that only the purple strain is described as sensitive to the condition. While the red strain grows more slowly than the blue strain in the treatment, this growth difference in not of interest because it matches that seen in the control.

Where only a bound is given, the exact number is not on record here.

On to “trans-(±)-1,2-cyclohexanediamine-trans-dihydroxo(pyrophosphato) platinum(IV) [Pyrodach-4]”, for which the “Suppression of VEGFR-2 expression” value in data set [1] was at most 50%. Further, in data set [1] (positive = manifold increase, negative = relative decrease vs untreated cells, pyrodach-4 90 or 180 μM, 1 to 6 hrs), the “Normalized expression of VEGFR2 gene” value was −2.0. Further, the “Expression of Fas” value in data set [2] (Pyrodach-4 + PFT-α) stood at 5.5; in data set [2] (Pyrodach-4 treatment only), 11.0. Also, the “Over-expression of PTEN” value in data set [3] is on record as 4-8 fold. Further, the “Over-expression of FasL” value in data set [4] was 2-4 fold. Further, in data set [5] (highest dose possible, 200 μM final concentration), the “Tolerability by the yeast cell (few sensitive strains)” value is “well tolerated by the cell”. For the same substance, the “Functions enriched among sensitive strains” value in data set [5] (yeast deletion strains, 200 μM final concentration) was 1) iron and copper transport and 2) metal-regulated transcription factors. Besides, the “Sensitivity of DNA damage/repair genes (NER, HRR, PRR)” value in data set [5] (yeast deletion strains, phosphaplatins at 200 μM final concentration) is listed as “not a single gene involved in DNA repair or other DNA metabolic processes showed any sensitivity as a mutant”.
